Assay results reported in patent publication US6156757A, “1,2,3,4-tetrahydro-benzofuro[3,2-C]pyridine derivatives” (Janssen Pharmaceutica N.V., priority 1997, dated 2000).

How the values were obtained:
α2 -adrenoceptor = assay: Xylazine-induced loss of righting reflex in rats; type: in vivo; conditions: one hour before xylazine 15 mg/kg i.v., male rats, lowest tested dose at which at least 66% of animals showed no loss of righting reflex
Experimental: This test is based upon the fact that centrally acting α2 -adrenoceptor antagonists reverse the loss of righting reflex induced by an intravenous injection of the α2 agonist xylazine. One hour before injection of xylazine (15 mg/kg, i.v.), male rats (200-250 g) were pretreated with a test compound (er os (p.o.) or subcutaneously (s.c.)) or solvent.

[1] = target: T1, cloned human α2C receptors (Homo sapiens, UniProt P18825); assay: In vitro binding affinity for α2C receptors (3H-rauwolscine competition binding); conditions: at a test concentration of 10^-8 M or less; CHO cell expressing cloned human α2C receptors
T1 construct: expressed in transfected cells; host or cells: CHO cells
T1 sequence (P18825 1-462): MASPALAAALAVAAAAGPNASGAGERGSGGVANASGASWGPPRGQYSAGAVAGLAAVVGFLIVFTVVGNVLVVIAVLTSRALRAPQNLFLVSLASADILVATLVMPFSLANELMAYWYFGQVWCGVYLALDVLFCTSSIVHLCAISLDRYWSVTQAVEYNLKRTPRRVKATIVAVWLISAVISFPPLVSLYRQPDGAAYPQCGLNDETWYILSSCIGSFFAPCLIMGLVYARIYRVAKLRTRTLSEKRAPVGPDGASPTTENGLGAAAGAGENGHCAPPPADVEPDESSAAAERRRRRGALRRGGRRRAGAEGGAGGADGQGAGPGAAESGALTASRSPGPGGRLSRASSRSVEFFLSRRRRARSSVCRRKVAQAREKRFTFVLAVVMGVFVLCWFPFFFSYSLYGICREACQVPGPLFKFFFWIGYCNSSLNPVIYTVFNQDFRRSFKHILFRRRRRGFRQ

[2] = target: T2, cloned human α2A receptors (Homo sapiens, UniProt P08913); assay: In vitro binding affinity for α2A receptors (3H-rauwolscine competition binding); conditions: at a test concentration of 10^-8 M or less; CHO cell expressing cloned human α2A receptors
T2 sequence (P08913 1-465): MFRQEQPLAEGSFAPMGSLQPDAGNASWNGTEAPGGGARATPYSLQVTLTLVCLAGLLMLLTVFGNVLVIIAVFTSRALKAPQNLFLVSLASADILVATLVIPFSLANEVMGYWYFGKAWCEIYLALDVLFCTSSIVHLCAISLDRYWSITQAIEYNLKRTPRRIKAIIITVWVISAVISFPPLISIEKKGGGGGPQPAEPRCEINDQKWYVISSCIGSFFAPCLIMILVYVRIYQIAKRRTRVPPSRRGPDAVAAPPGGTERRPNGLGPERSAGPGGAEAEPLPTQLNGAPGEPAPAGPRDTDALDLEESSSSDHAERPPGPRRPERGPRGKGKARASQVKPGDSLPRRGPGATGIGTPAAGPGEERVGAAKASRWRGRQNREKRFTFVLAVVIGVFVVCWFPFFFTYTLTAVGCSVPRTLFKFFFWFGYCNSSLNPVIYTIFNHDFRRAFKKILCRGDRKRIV
Experimental: The interaction of the compounds of formula (I) with α2 receptors was assessed in in vitro radioligand binding experiments.
In general, a low concentration of a radioligand with a high binding affinity for a particular receptor is incubated with a sample of a tissue preparation enriched in a particular receptor or with a preparation of cells expressing cloned human receptors in a buffered medium. During the incubation, the radioligand binds to the receptor. When equilibrium of binding is reached, the receptor bound radioactivity is separated from the non-bound radioactivity, and the receptor bound activity is counted. The interaction of the test compounds with the receptor is assessed in competition binding experiments. Various concentrations of the test compound are added to the incubation mixture containing the receptor preparation and the radioligand. Binding of the radioligand will be inhibited by the test compound in proportion to its binding affinity and its concentration.
The radioligand used for α2A receptor binding is ^3 H-rauwolscine and the receptor preparation used is the Chinese Hamster Ovary (CHO) cell expressing cloned human α2A receptors.

Row | inhibition at up to 0.01 µM [1] [%] | inhibition [2] [%] | SMILES | LAD in mg/kg (lowest active dose for xylazine antagonism) (α2 -adrenoceptor; s.c.) [mg/kg] | LAD in mg/kg (lowest active dose for xylazine antagonism) (α2 -adrenoceptor; p.o.) [mg/kg]
1 |  |  | Cc1nc2ccc(Cl)cn2c(=O)c1CCN1CCc2oc3ccccc3c2C1 [Compound 32] | 0.04 | 
2 |  |  | Cc1nc2scc(C)n2c(=O)c1CCN1CCc2oc3ccccc3c2C1 [Compound 5, 6-[[3,4-dihydrobenzofuro[3,2-c]pyridin-2(lH)-yl]ethyl]-3,7-dimethyl-5H-thiazolo-[3,2-a]pyrimidin-5-one] | 0.63 | 
3 | > 50 |  | Cc1nc2n(c(=O)c1CCN1CCc3oc4ccccc4c3C1)CCCC2C (stereo not shown) [Compound 13] |  | 
4 | > 50 | > 50 | CSc1nc(C)c(CCN2CCc3oc4ccccc4c3C2)c(=O)n1C [Compound 55] |  | 10.00
5 |  |  | Cc1cc(C)n2c(=O)c(CCN3CCc4oc5ccccc5c4C3)c(C)nc2c1 [Compound 37] | 10.00 | 
6 |  |  | Cc1ccc(C(=O)N2CCCC(CN3CCc4oc5ccccc5c4C3)C2)cc1 (stereo not shown) [Compound 57] |  | 10.00
7 | > 50 | > 50 | c1ccc2sc(NCCCCCN3CCc4oc5ccccc5c4C3)nc2c1 [Compound 48] | 10.00 | 
8 | > 50 |  | c1ccc2sc(NCCCCN3CCc4oc5ccccc5c4C3)nc2c1 [Compound 50] | 10.00 | 
9 |  |  | Cc1nc2n(c(=O)c1CCN1CCc3oc4ccccc4c3C1)CCCC2 [Compound 2] |  | 1.25
10 |  |  | Cn1c(=O)c2c(ncn2CCN2CCc3oc4ccccc4c3C2)n(C)c1=O [Compound 59] | 10.00 | 
11 |  | > 50 | Cc1nc2n(c(=O)c1CCN1CCc3oc4ccc(F)cc4c3C1)CCCC2 [Compound 18] | 10.00 | 
12 |  |  | Cc1nc2c(O)cccn2c(=O)c1CCN1CCc2oc3ccccc3c2C1 [Compound 35] | 10.00 | 
13 | > 50 |  | O=c1c(CCN2CCc3oc4ccccc4c3C2)c(Cc2ccccc2)nc2ccccn12 [Compound 14] |  | 
14 |  |  | Cc1nc2sccn2c(=O)c1CCN1CCc2oc3ccccc3c2C1 [Compound 1, 6-[[3,4-dihydrobenzofuro[3,2-c]pyridin-2(1H)-yl]ethyl]-7-methyl-5H-thiazolo-[3,2-a]pyrimidin-5-one] | 0.63 | 
15 |  |  | Cc1nc2sccn2c(=O)c1CCCN1CCc2oc3ccccc3c2C1 [Compound 27] | 10.00 | 
16 | > 50 | > 50 | COc1cccn2c(=O)c(CCN3CCc4oc5ccccc5c4C3)c(C)nc12 [Compound 65, 3-[2-[3,4-dihydrobenzofuro[3,2-c]-pyridin-2(1H)-yl]ethyl]-9-methoxy-2-methyl-4H-pyrido[1,2-a]pyrimidin-4-one] | 0.63 | 
17 | > 50 |  | Cc1nc2n(C)c(C)cn2c(=O)c1CCN1CCc2oc3ccccc3c2C1 [Compound 8] |  | 
18 |  |  | Cc1nc2sccn2c(=O)c1CCN1CCc2oc3ccc(F)cc3c2C1 [Compound 16] |  | 10.00
19 |  |  | Cc1nc2ccccn2c(=O)c1CCN1CCc2oc3c([N+](=O)[O-])cccc3c2C1 [Compound 22] |  | 10.00

Row | inhibition at up to 0.01 µM [1] [%] | inhibition [2] [%] | SMILES | LAD in mg/kg (lowest active dose for xylazine antagonism) (α2 -adrenoceptor; s.c.) [mg/kg] | LAD in mg/kg (lowest active dose for xylazine antagonism) (α2 -adrenoceptor; p.o.) [mg/kg]
20 |  |  | Cc1nc2cccc(C)n2c(=O)c1CCN1CCc2oc3ccccc3c2C1 [Compound 39] | 0.63 | 
21 |  | > 50 | Cc1nc2ccccn2c(=O)c1CCN1CCc2oc3ccc(F)cc3c2C1 [Compound 17] | 10.00 | 10.00
22 |  |  | Cc1nc2n(c(=O)c1CCN1CCc3oc4ccccc4c3C1)CCCC2C (stereo not shown) [Compound 25] |  | 10.00
23 |  |  | Cc1nc2n(c(=O)c1CCN1CCc3oc4ccccc4c3C1)CCS2 [Compound 6] | 0.63 | 
24 |  |  | Cc1nc2c(Cl)cc(Cl)cn2c(=O)c1CCN1CCc2oc3ccccc3c2C1 [Compound 40] |  | 10.00
25 | > 50 |  | Cc1ccc(C(=O)N2CCC(CN3CCc4oc5ccccc5c4C3)CC2)cc1 [Compound 58, 4-[(3,4-dihydrobenzofuro[3,2-c]pyridin-2(1H)-yl)methyl]-1-(4-methylbenzoyl)piperidine] |  | 2.50
26 |  |  | Cc1nc2ccccn2c(=O)c1CCN1CCc2oc3ccccc3c2C1 [Compound 3, 3-[2-[3,4-dihydrobenzofuro[3,2-c]pyridin-2(1H)-yl]ethyl]-2-methyl-4H-pyrido[1,2-a]pyrimidin-4-one] | 0.08 | 0.31
27 |  |  | Cc1cc2nc(C)c(CCN3CCc4oc5ccccc5c4C3)c(=O)n2o1 [Compound 4] |  | 1.25
28 |  |  | O=c1c(CCN2CCc3oc4ccccc4c3C2)c(Cc2ccccc2)nc2ccccn12 [Compound 29] | 10.00 | 
29 |  |  | Cc1nc2ccccn2c(=O)c1CCN1CCc2oc3ccc(Cl)cc3c2C1 [Compound 24] |  | 10.00
30 |  |  | Cc1ccc2oc3c(c2c1)CN(CCc1c(C)nc2sccn2c1=O)CC3 [Compound 19] | 10.00 | 
31 |  | > 50 | O=c1oc2ccccc2n1CCCN1CCc2oc3ccccc3c2C1 [Compound 60] |  | 10.00
32 | > 50 | > 50 | Cc1ccc2nc(C)c(CCN3CCc4oc5ccccc5c4C3)c(=O)n2c1 [Compound 34, 3-[2-[3,4-dihydrobenzofuro[3,2-c]pyridin-2(1H)-yl]ethyl]-2,7-dimethyl-4H-pyrido-[1,2-a]pyrimidin-4-one] | 0.16 | 
33 |  |  | c1ccc2sc(NCCN3CCc4oc5ccccc5c4C3)nc2c1 [Compound 51, N-2-benzothiazole-3,4-dihydrobenzofuro[3,2-c]pyridin-2(1H)-ethanamine (E)-2-butenedioate (1:1)] | 10.00 | 
34 | > 50 |  | Cc1nc2ccccn2c(=O)c1CCN1CCc2oc3c(Cl)cccc3c2C1 [Compound 23] | 2.50 | 
35 |  |  | Cc1nc2ccccn2c(=O)c1CCCN1CCc2oc3ccccc3c2C1 [Compound 26] | 10.00 | 
36 |  |  | Cc1ccn2c(=O)c(CCN3CCc4oc5ccccc5c4C3)c(C)nc2c1 [Compound 36] | 0.63 | 
37 |  | > 50 | c1ccc2sc(NCCCN3CCc4oc5ccccc5c4C3)nc2c1 [Compound 49] | 10.00 | 
38 |  |  | Cc1nc2n(c(=O)c1CCN1CCc3oc4ccccc4c3C1)CCCS2 [Compound 28] | 0.63 | 
